Source: patent publication US7692004B2, “Use of metal complex compounds as oxidation catalysts” (Ciba Specialty Chemicals Corporation, priority 2001, dated 2010)

Experiments:
[1] = Bleaching action in washing agents (LINITEST, DY increase); conditions: 1:1 Mn complex with ligand, H2O2 8.6 mmol/l, 30 minutes at 40° C.
Protocol: 7.5 g of white cotton fabric and 2.5 g of tea-stained cotton fabric are treated in 80 ml of washing liquor. The liquor contains a standard washing agent (ECE, 456 IEC) in a concentration of 7.5 g/l. The hydrogen peroxide concentration is 8.6 mmol/l. […] The washing process is carried out in a steel beaker in a LINITEST apparatus for 30 minutes at 40° C. For evaluating the bleaching results, the increase in the lightness DY (difference in lightness according to CIE) of the stains brought about by the treatment is determined spectrophotometrically in comparison with values obtained without the addition of catalyst.

[2] = Cleaning performance on soiled surfaces at 53° C.; conditions: for Difference (rating minus rating of reference): 1:1 manganese complex 7.3 μM, 53° C., reference = catalyst-free system; for Rating: 1:1 manganese complex with ligand 7.3 μM, H2O2 1.1 mM, pH 10.0, 23° to 53° C., visual scale 1 (no cleaning) to 10 (clean)
Protocol: (§1) A tea-stained cup is filled with 100 ml of a buffer solution (10 mM carbonate, pH=10.0) containing 1.1 mM of hydrogen peroxide and 7.3 μM of 1:1 manganese complex (prepared as described in Application Example 2). Using a thermostat, the temperature of the solution is raised from 23° to 53° C. over a period of 12 minutes and maintained at the final temperature for 23 minutes. After rinsing and drying in air, the results are evaluated visually on a scale of 1 (no cleaning) to 10 (clean). The catalyst-free system is used as reference.

[3] = Decomposition of hydrogen peroxide (iodometric); conditions: 1:1 manganese complex with ligand 7.3 μM, initial H2O2 1.1 mM
Protocol: as §1
The procedure is as in Application Example 3 but the consumption of H2O2 is determined iodometrically.

[4] = Activity of the manganese catalysts after the bleaching cycle; conditions: for Difference DDY: versus H2O2 without Mn complex
Protocol: 7.5 g of white cotton fabric and 2.5 g of tea-stained cotton fabric are treated in 80 ml of washing liquor. The liquor contains a standard washing agent (ECE, 456 IEC) in a concentration of 7.5 g/l. The hydrogen peroxide concentration is 8.6 mmol/l. The catalyst concentration (1:1 complex of manganese(II) chloride tetrahydrate with the ligand in question, prepared in methanolic solution with the addition of a small amount of lithium hydroxide) is 50 μmol/l. The washing process is carried out in a steel beaker in a LINITEST apparatus for 30 minutes at 40° C. For evaluating the bleaching results, the increase in the lightness DY (difference in lightness according to CIE) of the stains brought about by the treatment is determined spectrophotometrically in comparison with values obtained without the addition of catalyst.
The procedure as described in Application Example 2 is carried out for the 1st cycle, the cotton fabric is removed and for the 2nd cycle the procedure is carried out afresh with a new, as yet untreated cotton fabric. The DY values are determined as described in Application Example 2.

[5] = Action as catalyst for DTI (dye transfer inhibition); conditions: 1:1 manganese complex 50 μmol/l; H2O2 8.6 mmol/l; Direct Brown 172 10 mg/l; 30 minutes at 40° C.
Protocol: 7.5 g of white cotton fabric are treated in 80 ml of washing liquor. The liquor contains a standard washing agent (ECE, 456 IEC) in a concentration of 7.5 g/l. The hydrogen peroxide concentration is 8.6 mmol/l. The catalyst concentration (of manganese(II) chloride tetrahydrate with the ligand, prepared in methanolic solution with the addition of a small amount of lithium hydroxide) is 50 μmol/l, and a solution of the test dye Direct Brown 172 having 10 mg/l of the 250% formulation. The washing process is carried out in a steel beaker in a LINITEST apparatus for 30 minutes at 40° C. For testing the activity of the catalysts, the DTI activity is determined.
The reflection spectra of the samples were measured using a SPECTRAFLASH 2000 and converted into lightness values (D65/10) in accordance with a standard CIE procedure.

[6] = Catalytic action for the epoxidation of olefins; conditions: ligand 0.05 mmol with manganese(II) acetate tetrahydrate 0.04 mmol, sodium ascorbate, H2O2; 14 hours at room temperature; by 1H-NMR
Protocol: 17 mg (0.05 mmol) of 2-[(2-hydroxy-ethyl)-[2,2′;6′,2″]terpyridin-4′-yl-amino]-ethanol (L7, Example 7), 10 mg (0.04 mmol) of manganese(II) acetate tetrahydrate and 0.32 mmol of sodium ascorbate are added to a solution of 1.09 ml (10 mmol) of ethyl acrylate in 0.5 ml of acetonitrile. The mixture is cooled in an ice bath and a 30% strength hydrogen peroxide solution (2.27 g, 20 mmol) is added dropwise thereto in the course of 20 minutes. The mixture is then left for 14 hours at room temperature, then diluted with diethyl ether and the phases are separated. The organic extract is dried over sodium sulfate, filtered and concentrated. The catalytic turnover number for the epoxide formed, ethyl oxirane-2-carboxylate, is determined by comparing the intensity of the epoxide methine proton at 3.34-3.38 ppm with the ligand signal L7 at 8.53 ppm as reference and is 35±8. Ethyl oxirane-2-carboxylate, epoxide signals ^1H-NMR (360 MHz, CDCl3): 2.68-2.89 (m, 2H, CH2); 3.34-3.38 (m, 1H, CH). Without the addition of ligand, epoxide cannot be detected.

[7] = Catalytic bleaching of cellulose; conditions: catalytically bleached; 20 μM catalyst, 8.6 mM H2O2, pH 10.0, 40° C., 30 minutes; untreated sample 63.4
Protocol: 20 g of cellulose [TPP-CT CSF129, Ref. No. P-178635 (ISO 57.4)] are steeped in a litre of water for 65 hours and then stirred in a mixer for 2 minutes to give a paste-like pulp. A bleaching bath containing 50 g of the pulp so prepared in 180 ml of water, 100 μM of Dequest 2041 (sequestering agent), 8.6 mM of hydrogen peroxide and 20 μM of catalyst from Example 35 is maintained at 40° C. for 30 minutes. At the same time 1N sodium hydroxide solution is metered-in in such a manner that a pH of 10.0 is maintained. Filtration and air-drying are then carried out. A sample that has been compressed to form a circular sheet of 10 cm diameter is then tested for the lightness Y obtained (according to CIE, reflectance spectroscopy).

[8] = Cleaning performance on soiled surfaces at 23° C.; conditions: 0.16 g/l, constant 23° C., 45 minutes
Protocol: as §1
The procedure is as in Application Example 3 but the cleaning is carried out at a constant temperature of 23° C. (duration: 45 minutes).

[9] = 50 μmol/l, ECE washing agent 7.5 g/l, versus no catalyst

| Compound | DY increase [1, 9] | Difference (rating minus rating of reference) [2] | Rating [2] | also measured |
| --- | --- | --- | --- | --- |
| O=c1cc(-c2ccccn2)[nH]c(-c2ccccn2)c1 [Ligand L1, 1′H-[2,2′;6′,2″]Terpyridin-4′-one] | 5.0 | 1.9 | 5.0 (3.1) | Residual H2O2 ([3]; procedure of Application Example 3): 0.73 mM; Consumption ([3]; H2O2 consumption): 34% |
| NNc1cc(-c2ccccn2)nc(-c2ccccn2)c1 [Ligand L4, [2,2′;6′,2″]Terpyridin-4′-yl-hydrazine] | 5.0 |  |  |  |
| CN(CCO)c1cc(-c2ccccn2)nc(-c2ccccn2)c1 [Ligand L5, 2-(Methyl-[2,2′;6′,2″]terpyridin-4′-yl-amino)-ethanol] | 5.2 |  |  |  |
| c1ccc(-c2cc(N3CCCC3)cc(-c3ccccn3)n2)nc1 [Ligand L6, 4′-Pyrrolidin-1-yl-[2,2′;6′,2″]terpyridine] | 5.8 | 3.9 | 7.2 (3.3) |  |
| OCCN(CCO)c1cc(-c2ccccn2)nc(-c2ccccn2)c1 [Ligand L7, 2-[(2-Hydroxy-ethyl)-[2,2′;6′,2″]terpyridin-4′-yl-amino]-ethanol] | 5.6 | 3.6 | 6.9 (3.3) | Bleaching value with H2O2 and the 1:1 Mn complex (DY) ([4]; 1st cycle): DY = 23.0; Difference DDY ([4]; 1st cycle): 8.1; Bleaching value with H2O2 and the 1:1 Mn complex (DY) ([4]; 2nd cycle, same liquor, new fabric): DY = 19.0; Difference DDY ([4]; 2nd cycle): 8.0; DTI activity a [5]: 90%; Catalytic turnover number for the epoxide formed, ethyl oxirane-2-carboxylate [6]: 35±8 |
| CN1CCN(c2cc(-c3ccccn3)nc(-c3ccccn3)c2)CC1 [Ligand L8, 4′-(4-Methyl-piperazin-1-yl)-[2,2′;6′,2″]terpyridine] | 5.0 |  |  |  |
| c1ccc(-c2cc(N3CCCCCC3)cc(-c3ccccn3)n2)nc1 [Ligand L9, 4′-Azepan-1-yl-[2,2′;6′,2″]terpyridine] | 3.8 |  |  |  |
| c1ccc(-c2cc(N3CCCCC3)cc(-c3ccccn3)n2)nc1 [Ligand L10, 4′-Piperidin-1-yl-[2,2′;6′,2″]terpyridine] | 4.4 | 2.1 | 5.2 (3.1) |  |
| c1ccc(-c2cc(N3CCOCC3)cc(-c3ccccn3)n2)nc1 [Ligand L11, 4′-Morpholin-4-yl-[2,2′;6′,2″]terpyridine] | 5.5 | 2.4 | 5.7 (3.3) |  |
| CCOc1ccnc(-c2cc(=O)cc(-c3cc(OCC)ccn3)[nH]2)c1 [Ligand L17, 4,4″-Diethoxy-1′H-[2,2′;6′,2″]terpyridin-4′-one] | 5.3 |  |  |  |
| O=c1cc(-c2cc(N3CCCC3)ccn2)[nH]c(-c2cc(N3CCCC3)ccn2)c1 [Ligand L18, 4,4″-Di-pyrrolidin-1-yl-1′H-[2,2′;6′,2″]terpyridin-4′-one] | 3.0 |  |  |  |
| CN(CCO)c1ccnc(-c2cc(=O)cc(-c3cc(N(C)CCO)ccn3)[nH]2)c1 [Ligand L19, 4,4″-Bis[(2-hydroxy-ethyl)-methyl-amino]-1′H-[2,2′;6′,2″]terpyridin-4′-one] |  |  |  | DY increase ([1]; half concentration used): 5.3^1) |
| CN(CCO)c1ccnc(-c2cc(N(C)CCO)cc(-c3cc(N(C)CCO)ccn3)n2)c1 [Ligand L25, 2-({4′,4″-Bis[(2-hydroxy-ethyl)methyl-amino]-[2,2′;6′,2″]terpyridin-4-yl}-methylamino)-ethanol] | 6.2 |  |  |  |
| CCOc1ccnc(-c2cc(N(CCO)CCO)cc(-c3cc(OCC)ccn3)n2)c1 [Ligand L28, 2-[(4,4″-Diethoxy-[2,2′;6′,2″]terpyridin-4′-yl)-(2-hydroxy-ethyl)-amino]-ethanol] | 4.3 | 2.2 | 5.2 (3.0) |  |
| COc1ccccc1-c1cccc(-c2cccc(-c3cccc(-c4ccccc4OC)n3)n2)n1 [Ligand L29, 6,6″-Bis(2-methoxyphenyl)-2,2′:6′:2″-terpyridine] |  |  |  | Lightness Y [7]: 66.9 |
| CC(=O)N(CCN(C(C)=O)C(C)=O)C(C)=O [N,N′-tetraacetylethylenediamine (TAED), N,N,N′,N′-tetraacetylethylenediamine] |  |  |  | Difference (rating minus rating of reference) [8]: 2.9; Rating ([8]; scale 1 to 10): 6.8 (3.9) |
